This is an account of results in patent US20130046025A1, “COMPOSITION WITH LOW SKIN IRRITATION FOR TRANSDERMAL DELIVERY OF TOLTERODINE” (SK Chemicals Co., Ltd., priority 2010, published 2013).

The test system of this data set is forearm skin of a test subject. The data set is described as follows: Skin irritation test of patches (primary skin irritation index). The data set is classed as in vivo. The conditions noted are these: for Effect on relief of skin irritation caused by tolterodine, result in words: conclusion from Table 4, essential oil in tolterodine patch. The method, then:
Each of the patches produced in Production Examples 1 and 2 was cut to a size of 1 cm×1 cm. The specimen was attached to the forearm skin of a test subject and fixed with a medical tape to prevent detachment during the test period. After 24 hr, the medical tape and the patch were removed with care. After 1 hr, the primary skin irritation index of the patch for skin irritations including erythema and edema was determined with the help of an expert.
Skin irritation tests were conducted in the same manner as in Test Example 1.

Regarding `Cc1ccc(O)c([C@H](CCN(C(C)C)C(C)C)c2ccccc2)c1` [tolterodine, 2-[(1R)-3-(diisopropylamino)-1-phenylpropyl)-4-methylphenol], the “Skin irritation (erythema, edema), result in words” value (conclusion from Table 2) is “causing skin irritations”.

`C=CCc1ccc(O)c(OC)c1` [eugenol]: the “Effect on relief of skin irritation caused by tolterodine, result in words” value is “outstanding effects on skin irritation relief”.

For the compound `CC(C)=CCC[C@](C)(O)C1CC=C(C)CC1` (stereo partly drawn) [bisabolol], the “Effect on relief of skin irritation caused by tolterodine, result in words” value is on record as “outstanding effects on skin irritation relief”.
